Source: patent US10118918B2, “PRMT5 inhibitors and uses thereof” (Epizyme, Inc., priority 2012, dated 2018)
Like-named read-outs stand apart in the source and are kept apart here.

Test system: symmetric di-methyl arginine in Z-138 cells
Assay: Z-138 Methylation Assay (In Cell Western for symmetric di-methyl arginine and DNA content)
Format: cell-based
Settings: 96 hours incubation, read-out: ICW EC50
Source text: [formula] Where top and bottom are the normally allowed to float, but may be fixed at 100 or 0 respectively in a 3-parameter fit. The Hill Coefficient normally allowed to float but may also be fixed at 1 in a 3-parameter fit. Y is the % inhibition and X is the compound concentration. Z-138 Methylation Assay
Z-138 suspension cells were purchased from ATCC (American Type Culture Collection, Manassas, Va.). RPMI/Glutamax medium, penicillin-streptomycin, heat inactivated fetal bovine serum, and D-PBS were purchased from Life Technologies, Grand Island, N.Y., USA. Odyssey blocking buffer, 800CW goat anti-rabbit IgG (H+L) antibody, and Licor Odyssey infrared scanner were purchased from Licor Biosciences, Lincoln, Nebr., USA. Symmetric di-methyl arginine antibody was purchased from EMD Millipore, Billerica, Mass., USA. 16% Paraformaldehyde was purchased from Electron Microscopy Sciences, Hatfield, Pa., USA.
Z-138 suspension cells were maintained in growth medium (RPMI 1640 supplemented with 10% v/v heat inactivated fetal bovine serum and 100 units/mL penicillin-streptomycin) and cultured at 37° C. under 5% CO2.
Cell Treatment, in Cell Western (ICW) for Detection of Symmetric Di-Methyl Arginine and DNA Content.
Z-138 cells were seeded in assay medium at a concentration of 50,000 cells per mL to a 384-well cell culture plate with 50 μL per well. Compound (100 nL) from 384 well source plates was added directly to 384 well cell plate. Plates were incubated at 37° C., 5% CO2 for 96 hours. After four days of incubation, 40 μL of cells from incubated plates were added to poly-D-lysine coated 384 well culture plates (BD Biosciences 356697). Plates were incubated at room temperature for 30 minutes then incubated at 37° C., 5% CO2 for 5 hours. After the incubation, 40 μL per well of 8% paraformaldehyde in PBS (16% paraformaldahyde was diluted to 8% in PBS) was added to each plate and incubated for 30 minutes. Plates were transferred to a Biotek 405 plate washer and washed 5 times with 100 μL per well of wash buffer (IX PBS with 0.1% Triton X-100 (v/v)). Next 30 μL per well of Odyssey blocking buffer were added to each plate and incubated 1 hour at room temperature. Blocking buffer was removed and 20 μL per well of primary antibody was added (symmetric di-methyl arginine diluted 1:100 in Odyssey buffer with 0.1% Tween 20 (v/v)) and plates were incubated overnight (16 hours) at 4° C. Plates were washed 5 times with 100 μL per well of wash buffer. Next 20 μL per well of secondary antibody was added (1:200 800CW goat anti-rabbit IgG (H+L) antibody, 1:1000 DRAQ5 (Biostatus limited) in Odyssey buffer with 0.1% Tween 20 (v/v)) and incubated for 1 hour at room temperature. The plates were washed 5 times with 100 μL per well wash buffer then 1 time with 100 μL per well of water. Plates were allowed to dry at room temperature then imaged on the Licor Odyssey machine which measures integrated intensity at 700 nm and 800 nm wavelengths. Both 700 and 800 channels were scanned.
First, the ratio for each well was determined by:
Each plate included fourteen control wells of DMSO only treatment (minimum inhibition) as well as fourteen control wells for maximum inhibition treated with 3 μM of a reference compound (Background wells). The average of the ratio values for each control type was calculated and used to determine the percent inhibition for each test well in the plate. Reference compound was serially diluted three-fold in DMSO for a total of nine test concentrations, beginning at 3 μM. Percent inhibition was determined and IC50 curves were generated using triplicate wells per concentration of compound. […]

EC50 (Homo sapiens)	EC50	Molecule
> 1 µM	–	Cc1nc(NC2COC2)cc(C(=O)NC[C@H](O)CN2Cc3ccccc3C2)n1 [compound 35]
0.101 to 1 µM	–	O=C(NC[C@H](O)CN1Cc2ccccc2C1)c1cc(NC2COC2)nc(C(F)(F)F)n1 [compound 36]
0.101 to 1 µM	–	O=C(CCc1nc2ccccc2[nH]1)NCC(O)CN1Cc2ccccc2C1 (stereo not shown) [compound 37]
< 0.1 µM	–	O=C(NC[C@H](O)CN1Cc2ccccc2C1)c1cc(NC2COC2)nc(N2CCOCC2)n1 [compound 38]
< 0.1 µM	–	CC(=O)N1CCC(Nc2cc(C(=O)NC[C@H](O)CN3Cc4ccccc4C3)ccn2)CC1 [compound 40]
> 1 µM	–	O=C(NC[C@H](O)CN1CCc2ccccc21)c1cc(NC2COC2)ncn1 [compound 42]
> 1 µM	–	CC(=O)N1CCC(Nc2cc(C(=O)NC[C@H](O)CN3CCc4ccccc43)ncn2)CC1 [compound 43]
> 1 µM	–	CC(=O)N1CCC(Nc2cc(C(=O)NC[C@H](O)CN3CCc4ccccc43)ccn2)CC1 [compound 44]
> 1 µM	–	O=C(NC[C@H](O)CN1CCCCc2ccccc21)c1cc(NC2COC2)ncn1 [compound 45]
> 1 µM	–	CC(=O)N1CC(Nc2cc(C(=O)NC[C@H](O)CN3CCCCc4ccccc43)ncn2)C1 [compound 46]
> 1 µM	–	CC(=O)N1CCC(Nc2cc(C(=O)NC[C@H](O)CN3CCCCc4ccccc43)ncn2)CC1 [compound 47]
> 1 µM	–	O=C(NC[C@H](O)CN1CCCc2ccccc2C1)c1cc(NC2COC2)ncn1 [compound 48]
> 1 µM	–	CC(=O)N1CC(Nc2cc(C(=O)NC[C@H](O)CN3CCCc4ccccc4C3)ncn2)C1 [compound 49]
> 1 µM	–	CC(=O)N1CCC(Nc2cc(C(=O)NC[C@H](O)CN3CCCc4ccccc4C3)ncn2)CC1 [compound 50]
–	0.101 to 1 µM	N-(2-hydroxy-3-(isoindolin-2-yl)propyl)-2-((4-methyl-3,4-dihydro-2H-benzo[b][1,4]oxazin-5-yl)oxy)acetamide [compound 10]

Molecule	EC50 (Homo sapiens)	EC50
C[C@@H](Oc1cccc2cccnc12)C(=O)NC[C@H](O)CN1Cc2ccccc2C1 [compound 5, (R)—N—((S)-2-hydroxy-3-(isoindolin-2-yl)propyl)-2-(quinolin-8-yloxy)propanamide]	0.101 to 1 µM	–
O=C(COc1ccccc1-c1cc[nH]n1)NCC(O)CN1Cc2ccccc2C1 (stereo not shown) [compound 7]	0.101 to 1 µM	–
O=C(NCC(O)CN1Cc2ccccc2C1)c1cccc(-c2ccccn2)c1 (stereo not shown) [compound 13, N-(2-hydroxy-3-(isoindolin-2-yl)propyl)-3-(pyridin-2-yl)benzamide]	1 to 10 µM	–
CN(C)S(=O)(=O)c1ccccc1OCC(=O)NCC(O)CN1Cc2ccccc2C1 (stereo not shown) [compound 15, 2-(2-(N,N-dimethylsulfamoyl)phenoxy)-N-(2-hydroxy-3-(isoindolin-2-yl)propyl)acetamide]	0.101 to 1 µM	–
O=C(COc1cccc2cccnc12)NCC(O)CN1Cc2ccccc2C1 (stereo not shown) [compound 19, N-(2-hydroxy-3-(isoindolin-2-yl)propyl)-2-(quinolin-8-yloxy)acetamide]	1 to 10 µM	–
O=C(NC[C@H](O)CN1Cc2ccccc2C1)c1cccc(NC2CCOCC2)c1 [compound 28]	0.101 to 1 µM	–
O=C(NC[C@H](O)CN1Cc2ccccc2C1)c1cc(NC2CCOCC2)ncn1 [compound 29]	0.101 to 1 µM	–
